Source: US20240210412A1, “SULFONYL-TRIAZOLE COMPOUNDS USEFUL AS LIGANDS AND INHIBITORS OF PROSTAGLANDIN REDUCTASE 2” (University of Virginia Patent Foundation, priority 2021, published 2024)

Experiments:
Test in all cases: SILAC LC-MS ABPP
Assay type in all cases: cell-based
Conditions in all cases: 25 μM 2 h, live DM93 cells
Q969T9 = biological target: T1, Q969T9 (Homo sapiens, UniProt Q969T9)
T1 construct: endogenous in cells; host or cells: DM93 cells (SILAC), live-cell treatment
Summary of the method: (§1)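 Quantification uses SILAC ratios from LC-MS/MS of probe-modified tyrosine peptides. DM93 melanoma cells: heavy treated with 25 μM SuTEx ligand, light with DMSO (2 h, 37 °C), followed by HHS-475 probe at 100 μM for 2 h.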

Q9UJ68 = biological target: T2, Q9UJ68 (Homo sapiens, UniProt Q9UJ68)
T2 construct: endogenous in cells; host or cells: DM93 cells (SILAC)
Summary of the method: as §1

P09874 = biological target: T3, P09874 (Homo sapiens, UniProt P09874)
T3 construct: endogenous in cells; host or cells: DM93 cells (SILAC)
T3 sequence (P09874 whole entry): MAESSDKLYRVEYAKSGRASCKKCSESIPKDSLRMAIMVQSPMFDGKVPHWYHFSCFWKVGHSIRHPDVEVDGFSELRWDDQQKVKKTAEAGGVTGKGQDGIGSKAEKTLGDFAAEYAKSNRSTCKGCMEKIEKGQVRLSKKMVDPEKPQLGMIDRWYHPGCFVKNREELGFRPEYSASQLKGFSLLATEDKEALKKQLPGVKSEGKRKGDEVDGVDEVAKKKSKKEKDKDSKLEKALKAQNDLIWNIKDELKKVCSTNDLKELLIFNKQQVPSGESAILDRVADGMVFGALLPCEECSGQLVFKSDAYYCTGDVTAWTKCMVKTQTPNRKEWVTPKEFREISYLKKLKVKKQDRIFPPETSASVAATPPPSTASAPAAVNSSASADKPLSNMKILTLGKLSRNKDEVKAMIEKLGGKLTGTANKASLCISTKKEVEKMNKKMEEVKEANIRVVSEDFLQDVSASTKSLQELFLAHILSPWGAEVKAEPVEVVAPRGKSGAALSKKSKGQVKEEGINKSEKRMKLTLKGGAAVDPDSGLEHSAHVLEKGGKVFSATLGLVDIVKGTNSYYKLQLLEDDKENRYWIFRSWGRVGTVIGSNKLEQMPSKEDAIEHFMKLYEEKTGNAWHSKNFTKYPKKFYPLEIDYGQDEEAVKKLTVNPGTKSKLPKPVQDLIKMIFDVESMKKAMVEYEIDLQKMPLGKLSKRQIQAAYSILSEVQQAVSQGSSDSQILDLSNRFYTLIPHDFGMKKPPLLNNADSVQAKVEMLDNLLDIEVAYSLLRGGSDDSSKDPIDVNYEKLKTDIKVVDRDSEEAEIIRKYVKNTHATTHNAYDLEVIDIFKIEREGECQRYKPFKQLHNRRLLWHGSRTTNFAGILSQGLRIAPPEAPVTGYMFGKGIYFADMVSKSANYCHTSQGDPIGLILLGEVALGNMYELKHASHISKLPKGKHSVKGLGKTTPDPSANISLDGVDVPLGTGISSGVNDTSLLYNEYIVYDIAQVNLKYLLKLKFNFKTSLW
Summary of the method: as §1

Q9BXJ9 = biological target: T4, Q9BXJ9 (Homo sapiens, UniProt Q9BXJ9)
T4 construct: endogenous in cells; host or cells: DM93 cells (SILAC), treated live; soluble proteome analysed
T4 sequence (Q9BXJ9 whole entry): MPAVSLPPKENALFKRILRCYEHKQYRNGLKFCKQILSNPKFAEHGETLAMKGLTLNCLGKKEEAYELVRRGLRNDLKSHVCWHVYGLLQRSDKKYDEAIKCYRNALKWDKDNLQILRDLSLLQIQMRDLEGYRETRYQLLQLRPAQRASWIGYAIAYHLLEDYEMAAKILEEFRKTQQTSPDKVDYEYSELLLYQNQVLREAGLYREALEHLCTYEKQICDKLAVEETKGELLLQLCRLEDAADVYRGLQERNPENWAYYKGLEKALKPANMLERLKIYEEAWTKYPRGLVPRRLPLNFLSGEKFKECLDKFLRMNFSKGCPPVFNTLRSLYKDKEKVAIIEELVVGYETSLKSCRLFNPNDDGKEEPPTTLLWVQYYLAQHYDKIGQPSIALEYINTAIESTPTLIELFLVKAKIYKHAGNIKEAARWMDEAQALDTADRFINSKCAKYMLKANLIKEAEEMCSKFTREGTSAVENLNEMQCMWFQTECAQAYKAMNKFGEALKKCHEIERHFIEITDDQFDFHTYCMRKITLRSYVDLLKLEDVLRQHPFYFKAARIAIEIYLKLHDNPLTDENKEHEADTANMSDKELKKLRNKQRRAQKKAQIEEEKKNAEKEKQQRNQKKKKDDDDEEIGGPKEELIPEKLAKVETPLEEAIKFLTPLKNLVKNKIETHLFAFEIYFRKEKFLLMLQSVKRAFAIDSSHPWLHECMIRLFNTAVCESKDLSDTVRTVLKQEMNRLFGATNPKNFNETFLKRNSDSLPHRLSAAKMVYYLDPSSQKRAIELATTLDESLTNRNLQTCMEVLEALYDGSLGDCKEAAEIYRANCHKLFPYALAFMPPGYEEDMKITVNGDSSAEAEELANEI
Summary of the method: as §1

Q13151 = biological target: T5, Q13151 (Homo sapiens, UniProt Q13151)
T5 construct: performing SuTEx compound screening directly in cells; endogenous in cells; host or cells: DM93 cells (SILAC), soluble fraction
Summary of the method: as §1

O43776 = biological target: T6, O43776 (Homo sapiens, UniProt O43776)
T6 construct: endogenous in cells; host or cells: DM93
Summary of the method: as §1

Q8IX04 = biological target: T7, Q8IX04 (Homo sapiens, UniProt Q8IX04)
T7 construct: endogenous in cells; host or cells: DM93 cells (SILAC), live-cell treatment
T7 sequence (Q8IX04 whole entry): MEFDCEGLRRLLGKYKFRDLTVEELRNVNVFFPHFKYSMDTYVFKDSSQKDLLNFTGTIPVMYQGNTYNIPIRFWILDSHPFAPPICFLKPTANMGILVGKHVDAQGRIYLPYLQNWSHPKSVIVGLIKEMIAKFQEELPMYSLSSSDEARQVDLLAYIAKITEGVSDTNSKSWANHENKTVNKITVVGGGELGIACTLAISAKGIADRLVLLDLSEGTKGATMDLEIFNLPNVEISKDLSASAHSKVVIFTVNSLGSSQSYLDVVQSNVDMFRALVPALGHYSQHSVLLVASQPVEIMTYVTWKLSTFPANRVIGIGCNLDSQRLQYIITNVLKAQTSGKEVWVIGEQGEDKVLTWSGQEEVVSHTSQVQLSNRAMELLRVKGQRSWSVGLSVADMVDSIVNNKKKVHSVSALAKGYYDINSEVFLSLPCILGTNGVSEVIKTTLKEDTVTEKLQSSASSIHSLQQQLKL
Summary of the method: as §1

P13674 = biological target: T8, P13674 (Homo sapiens, UniProt P13674)
T8 construct: endogenous in cells; host or cells: DM93 cells (SILAC)
Summary of the method: as §1

P04040 = biological target: T9, P04040 (Homo sapiens, UniProt P04040)
T9 construct: endogenous in cells; host or cells: DM93 cells (SILAC)
T9 sequence (P04040 whole entry): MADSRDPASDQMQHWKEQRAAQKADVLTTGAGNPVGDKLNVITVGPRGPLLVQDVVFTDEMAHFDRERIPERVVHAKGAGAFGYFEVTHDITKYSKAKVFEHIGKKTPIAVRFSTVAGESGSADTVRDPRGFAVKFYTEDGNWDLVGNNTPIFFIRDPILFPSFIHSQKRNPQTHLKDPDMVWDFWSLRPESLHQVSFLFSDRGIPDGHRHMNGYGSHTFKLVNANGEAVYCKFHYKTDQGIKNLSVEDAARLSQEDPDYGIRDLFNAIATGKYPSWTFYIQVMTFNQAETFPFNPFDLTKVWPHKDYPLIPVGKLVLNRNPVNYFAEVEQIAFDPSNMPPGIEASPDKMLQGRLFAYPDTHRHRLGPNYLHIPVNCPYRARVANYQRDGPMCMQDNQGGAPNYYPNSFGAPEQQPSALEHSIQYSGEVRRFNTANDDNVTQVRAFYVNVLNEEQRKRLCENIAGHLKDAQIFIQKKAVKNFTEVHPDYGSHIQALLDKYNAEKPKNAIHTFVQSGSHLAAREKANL
Summary of the method: as §1

Q9HCE5 = biological target: T10, Q9HCE5 (Homo sapiens, UniProt Q9HCE5)
T10 construct: endogenous in cells; host or cells: DM93 cells (SILAC), treated live; soluble proteome analysed
Summary of the method: as §1

Q9Y2W1 = biological target: T11, Q9Y2W1 (Homo sapiens, UniProt Q9Y2W1)
T11 construct: endogenous in cells; host or cells: DM93 cells (SILAC)
T11 sequence (Q9Y2W1 whole entry): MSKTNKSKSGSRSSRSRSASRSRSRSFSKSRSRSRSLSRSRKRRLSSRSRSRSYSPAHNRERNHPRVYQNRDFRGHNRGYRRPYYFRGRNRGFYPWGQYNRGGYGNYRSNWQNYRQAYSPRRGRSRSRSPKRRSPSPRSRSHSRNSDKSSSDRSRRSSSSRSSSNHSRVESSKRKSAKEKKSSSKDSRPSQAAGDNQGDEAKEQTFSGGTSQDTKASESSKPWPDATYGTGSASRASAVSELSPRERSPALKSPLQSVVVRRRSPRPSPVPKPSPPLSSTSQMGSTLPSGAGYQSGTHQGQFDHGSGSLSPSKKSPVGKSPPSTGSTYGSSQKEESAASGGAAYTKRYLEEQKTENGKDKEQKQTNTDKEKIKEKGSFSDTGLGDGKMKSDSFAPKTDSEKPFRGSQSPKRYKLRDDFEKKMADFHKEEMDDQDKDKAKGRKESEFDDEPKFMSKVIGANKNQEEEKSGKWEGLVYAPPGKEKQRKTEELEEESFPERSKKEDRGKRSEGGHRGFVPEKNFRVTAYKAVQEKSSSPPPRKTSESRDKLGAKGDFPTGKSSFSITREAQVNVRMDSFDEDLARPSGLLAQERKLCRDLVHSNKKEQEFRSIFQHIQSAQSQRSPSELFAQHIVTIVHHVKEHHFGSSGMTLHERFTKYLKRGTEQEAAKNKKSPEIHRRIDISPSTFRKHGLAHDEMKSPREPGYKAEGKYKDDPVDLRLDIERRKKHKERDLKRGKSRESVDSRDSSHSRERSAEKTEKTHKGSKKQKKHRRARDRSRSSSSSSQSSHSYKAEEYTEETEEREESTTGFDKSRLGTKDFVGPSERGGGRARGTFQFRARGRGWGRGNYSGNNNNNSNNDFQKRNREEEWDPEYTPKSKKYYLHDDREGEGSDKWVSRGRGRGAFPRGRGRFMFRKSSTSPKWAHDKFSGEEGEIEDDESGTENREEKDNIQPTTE
Summary of the method: as §1

O43852 = biological target: T12, O43852 (Homo sapiens, UniProt O43852)
T12 construct: endogenous in cells; host or cells: DM93
Summary of the method: as §1

Q96A72 = biological target: T13, Q96A72 (Homo sapiens, UniProt Q96A72)
T13 construct: endogenous in cells; host or cells: DM93 cells (SILAC), treated live; soluble proteome analysed
T13 sequence (Q96A72 whole entry): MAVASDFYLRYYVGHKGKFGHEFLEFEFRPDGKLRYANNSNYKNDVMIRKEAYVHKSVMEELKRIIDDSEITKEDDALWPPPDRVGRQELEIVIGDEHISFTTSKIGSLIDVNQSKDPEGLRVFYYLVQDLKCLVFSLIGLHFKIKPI
Summary of the method: as §1

P30086 = biological target: T14, P30086 (Homo sapiens, UniProt P30086)
T14 construct: endogenous in cells; host or cells: DM93 (SILAC)
T14 sequence (P30086 whole entry): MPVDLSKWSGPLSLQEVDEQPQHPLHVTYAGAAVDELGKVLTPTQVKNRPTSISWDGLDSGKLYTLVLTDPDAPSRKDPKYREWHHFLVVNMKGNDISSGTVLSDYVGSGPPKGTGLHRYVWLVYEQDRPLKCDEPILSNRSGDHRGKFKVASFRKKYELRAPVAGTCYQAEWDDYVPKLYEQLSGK
Summary of the method: as §1

O14578 = biological target: T15, O14578 (Homo sapiens, UniProt O14578)
T15 construct: endogenous in cells; host or cells: DM93
Summary of the method: as §1

Q16576 = biological target: T16, Q16576 (Homo sapiens, UniProt Q16576)
T16 construct: performing SuTEx compound screening directly in cells; endogenous in cells; host or cells: DM93 cells (SILAC), soluble fraction
T16 sequence (Q16576 whole entry): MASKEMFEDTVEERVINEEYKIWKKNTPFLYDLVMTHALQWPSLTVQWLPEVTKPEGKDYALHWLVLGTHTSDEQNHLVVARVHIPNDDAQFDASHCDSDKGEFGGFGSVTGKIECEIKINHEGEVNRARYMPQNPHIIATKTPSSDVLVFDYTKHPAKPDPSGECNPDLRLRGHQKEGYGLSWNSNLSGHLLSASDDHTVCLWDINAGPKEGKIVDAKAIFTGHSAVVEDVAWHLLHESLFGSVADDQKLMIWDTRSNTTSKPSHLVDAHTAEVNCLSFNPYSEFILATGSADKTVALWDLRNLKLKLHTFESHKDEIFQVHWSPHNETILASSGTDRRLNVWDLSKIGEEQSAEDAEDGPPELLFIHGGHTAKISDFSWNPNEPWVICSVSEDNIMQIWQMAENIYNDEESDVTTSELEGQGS
Summary of the method: as §1

P06132 = biological target: T17, P06132 (Homo sapiens, UniProt P06132)
T17 construct: endogenous in cells; host or cells: DM93 cells (SILAC)
T17 sequence (P06132 whole entry): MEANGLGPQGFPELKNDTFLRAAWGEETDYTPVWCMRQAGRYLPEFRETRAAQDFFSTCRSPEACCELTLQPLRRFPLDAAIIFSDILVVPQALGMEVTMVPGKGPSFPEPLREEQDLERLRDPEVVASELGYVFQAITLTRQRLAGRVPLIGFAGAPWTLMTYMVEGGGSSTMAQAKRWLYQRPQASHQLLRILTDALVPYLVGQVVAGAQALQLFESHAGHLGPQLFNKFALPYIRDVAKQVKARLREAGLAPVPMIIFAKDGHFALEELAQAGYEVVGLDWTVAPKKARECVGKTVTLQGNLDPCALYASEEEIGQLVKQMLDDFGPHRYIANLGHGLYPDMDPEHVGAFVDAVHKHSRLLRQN
Summary of the method: as §1

Q7Z6M1 = biological target: T18, Q7Z6M1 (Homo sapiens, UniProt Q7Z6M1)
T18 construct: endogenous in cells; host or cells: DM93 cells (SILAC), live-cell treatment
Summary of the method: as §1

P49721 = biological target: T19, P49721 (Homo sapiens, UniProt P49721)
T19 construct: endogenous in cells; host or cells: DM93 cells (SILAC)
Summary of the method: as §1

O=C(NC1CC1)c1ccc(S(=O)(=O)n2cncn2)cc1 [HHS-0101, 4-((1H-1,2,4-triazol-1-yl)sulfonyl)-N-cyclopropylbenzamide] was tested, and the “liganded tyrosine site 232” value (Q969T9) was “HHS0101.Y|HHS0701.Y (tyrosine sites that showed >80% reductions (SR >5) in probe labeling in cells treated with compounds (liganded sites))”, the “liganded tyrosine site 211” value (Q9UJ68) was “HHS0101.Y|HHS0401.Y|HHS0701.Y (tyrosine sites that showed >80% reductions (SR >5) in probe labeling in cells treated with compounds (liganded sites))” and the “liganded tyrosine site 645” value (P09874) was “HHS0101.Y (tyrosine sites that showed >80% reductions (SR >5) in probe labeling in cells treated with compounds (liganded sites))”. The “liganded tyrosine site 86” value (Q9BXJ9) was “HHS0101.Y|HHS0701.Y (tyrosine sites that showed >80% reductions (SR >5) in probe labeling in cells treated with compounds (liganded sites))”, the “liganded tyrosine site 180” value (Q13151) was “HHS0101.Y (tyrosine sites that showed >80% reductions (SR >5) in probe labeling in cells treated with compounds (liganded sites))” and the “liganded tyrosine site 45” value (O43776) was “HHS0101.Y (tyrosine sites that showed >80% reductions (SR >5) in probe labeling in cells treated with compounds (liganded sites))”. The “liganded tyrosine site 158” value (Q8IX04) was “HHS0101.Y|HHS0201.Y|HHS0301.Y (tyrosine sites that showed >80% reductions (SR >5) in probe labeling in cells treated with compounds (liganded sites))”, the “liganded tyrosine site 250” value (P13674) was “HHS0101.Y (tyrosine sites that showed >80% reductions (SR >5) in probe labeling in cells treated with compounds (liganded sites))” and the “liganded tyrosine site 358” value (P04040) was “HHS0101.Y|HHS0201.Y|HHS0301.Y|HHS0701.Y (tyrosine sites that showed >80% reductions (SR >5) in probe labeling in cells treated with compounds (liganded sites))”.
With O=C(NCC1CC1)c1ccc(S(=O)(=O)n2cncn2)cc1 [HHS-0201, 4-((1H-1,2,4-triazol-1-yl)sulfonyl)-N-(cyclopropylmethyl)benzamide] the “liganded tyrosine site 169” value (Q9HCE5) was “HHS0201.Y|HHS0301.Y (tyrosine sites that showed >80% reductions (SR >5) in probe labeling in cells treated with compounds (liganded sites))”, the “liganded tyrosine site 344” value (Q9Y2W1) was “HHS0201.Y|HHS0301.Y (tyrosine sites that showed >80% reductions (SR >5) in probe labeling in cells treated with compounds (liganded sites))” and the “liganded tyrosine site 294” value (O43852) was “HHS0201.Y (tyrosine sites that showed >80% reductions (SR >5) in probe labeling in cells treated with compounds (liganded sites))”. The “liganded tyrosine site 36” value (Q96A72) was “HHS0201.Y (tyrosine sites that showed >80% reductions (SR >5) in probe labeling in cells treated with compounds (liganded sites))”.
O=C(NC1CCCCC1)c1ccc(S(=O)(=O)n2cncn2)cc1 [HHS-0301, 4-((1H-1,2,4-triazol-1-yl)sulfonyl)-N-cyclohexylbenzamide] was tested, and the “liganded tyrosine site 106” value (P30086) was “HHS0301.Y (tyrosine sites that showed >80% reductions (SR >5) in probe labeling in cells treated with compounds (liganded sites))”, the “liganded tyrosine site 818” value (O14578) was “HHS0301.Y (tyrosine sites that showed >80% reductions (SR >5) in probe labeling in cells treated with compounds (liganded sites))” and the “liganded tyrosine site 153” value (Q16576) was “HHS0301.Y|HHS0701.Y (tyrosine sites that showed >80% reductions (SR >5) in probe labeling in cells treated with compounds (liganded sites))”.
In the case of O=C(NCc1ccccc1)c1ccc(S(=O)(=O)n2cncn2)cc1 [HHS-0401, 4-((1H-1,2,4-triazol-1-yl)sulfonyl)-N-benzylbenzamide], the “liganded tyrosine site 164” value (P06132) is reported as “HHS0401.Y (tyrosine sites that showed >80% reductions (SR >5) in probe labeling in cells treated with compounds (liganded sites))” and the “liganded tyrosine site 87” value (Q7Z6M1) is reported as “HHS0401.Y|HHS0701.Y (tyrosine sites that showed >80% reductions (SR >5) in probe labeling in cells treated with compounds (liganded sites))”.
In the case of O=C(c1ccc(S(=O)(=O)n2cncn2)cc1)N1CCC(c2ccccc2)CC1 [HHS-0701, (4-((1H-1,2,4-triazol-1-yl)sulfonyl)phenyl)(4-phenylpiperidin-1-yl)methanone], the “liganded tyrosine site 134” value (P49721) is reported as “HHS0701.Y (tyrosine sites that showed >80% reductions (SR >5) in probe labeling in cells treated with compounds (liganded sites))”.
